Laboratory results published in patent publication US20150231236A1, “METHODS FOR TREATING PATIENTS WITH HYPERCHOLESTEROLEMIA THAT IS NOT ADEQUATELY CONTROLLED BY MODERATE-DOSE STATIN THERAPY” (Regeneron Pharmaceuticals, Inc., priority 2014, published 2015).

What was measured:
[1] = tested on: patients with hypercholesterolemia at high CV risk not adequately controlled with rosuvastatin (10 mg or 20 mg); assay: Example 3: safety, treatment-emergent adverse events in pooled treatment groups; conditions: Safety Population; pooled treatment groups
[2] = tested on: patients with hypercholesterolemia at high CV risk not adequately controlled with atorvastatin (20 mg or 40 mg); assay: Example 2: randomized, double-blind trial, lipid efficacy of mAb316P add-on to atorvastatin vs EZE add-on, atorvastatin dose doubling or switch to rosuvastatin; assay type: in vivo, human
Method: The present study was a randomized, double-blind, active-comparator, parallel-group study in patients at high CV risk with non-FH or heFH who are not adequately controlled with atorvastatin (20 mg or 40 mg) with or without other lipid-modifying therapy (LMT) (excluding EZE). The study design is illustrated in FIG. 1. Patients who entered the study were taking either atorvastatin 20 mg or atorvastatin 40 mg. The former patients were randomized to 1 of 3 treatment arms (arms 1 to 3); the latter patients were randomized to 1 of 4 treatment arms (arms 4 to 7). The treatment arms are as follows:
(1) mAb316P+atorvastatin 20 mg+placebo-EZE; (2) Placebo-mAb316P+atorvastatin 40 mg+placebo-EZE; and (3) Placebo-mAb316P+atorvastatin 20 mg+EZE 10 mg.
(4) mAb316P+atorvastatin 40 mg+placebo-EZE; (5) Placebo-mAb316P+atorvastatin 80 mg+placebo-EZE; (6). Placebo-mAb316P+rosuvastatin 40 mg+placebo-EZE; and (7) Placebo-mAb316P+atorvastatin 40 mg+EZE 10 mg.
(B) a double-blind treatment period of 24 weeks. Each patient received a SC injection Q2W (mAb316P or placebo-mAb316P) and was administered (or instructed to take) 2 oral blinded medications daily (a statin [atorvastatin or rosuvastatin] and EZE or placebo-EZE). The first injection of mAb316P or placebo-mAb316P was administered at the clinical site on day 1, after study assessments were completed, and as soon as possible after the patient was randomized into the study. The patient/caregiver administered subsequent injections outside of the clinic according to the dosing schedule. On days where the clinic study visit coincided with dosing, the dose of study drugs (injectable and oral) were administered after all study assessments had been performed and all laboratory samples collected. The last dose of mAb316P or placebo-mAb316P was administered at week 22. The last dose of daily oral study drugs was administered at week 24. At week 12, based on their baseline CV risk, certain patients randomized to mAb316P in a blinded manner, had their dose increased as follows:
Each patient received a subcutaneous (SC) injection once every two weeks (Q2W) (mAb316P or placebo-mAb316P) and took 2 oral blinded medications daily (a statin [atorvastatin or rosuvastatin] and EZE or placebo-EZE).
The injectable study treatment was a single SC injection of 1 mL for a 75 mg or 150 mg dose of mAb316P or placebo-mAb316P provided in an auto-injector, administered in the abdomen, thigh, or outer area of the upper arm. The first injection of study drug was administered at the clinical site, as soon as possible after the patient was randomized into the study. The patient was monitored at the clinical site for at least 30 minutes following the first injection. The patient/caregiver administered subsequent injections outside of the clinic, according to the dosing schedule. On days where the clinic study visit coincided with dosing, the dose of study drug was administered after all study assessments have been performed and all laboratory samples collected.
The dose of mAb316P was increased, in a blinded manner, from 75 mg to 150 mg SC Q2W, starting at week 12, based on baseline CV risk in the following circumstances:
The primary efficacy endpoint was the percent change in calculated LDL-C from baseline to week 24, which is defined as: 100× (calculated LDL-C value at week 24−calculated LDL-C value at baseline)/calculated LDL-C value at baseline. The baseline calculated LDL-C value was the last LDL-C level obtained before the first double-blind study drug injection. The calculated LDL-C at week 24 will be the LDL-C level obtained within the week 24 analysis window and during the main efficacy period. The main efficacy period was defined as the time from the first double-blind study drug injection up to 21 days after the last double-blind study drug injection or up to the upper limit of the week 24 analysis window, whichever comes first.
Total-C, HDL-C, TG, ApoB, ApoA-1, and Lp (a) were directly measured by a central laboratory. […]

CC(C)c1nc(N(C)S(C)(=O)=O)nc(-c2ccc(F)cc2)c1/C=C/[C@@H](O)C[C@@H](O)CC(=O)O [rosuvastatin, reference compound]
General Allergic TEAEs [1]: 7 (6.9%) patients (%) | SOC General disorders and administration site conditions [1]: 10 (9.9%) patients (%) | SOC Psychiatric disorders [1]: 3 (3.0%) patients (%) | SOC Respiratory, thoracic and mediastinal disorders [1]: 5 (5.0%) patients (%) | SOC Skin and subcutaneous tissue disorders [1]: 6 (5.9%) patients (%) | TEAEs [1]: 68 (67.3%) patients (%) | Treatment-emergent SAEs [1]: 8 (7.9%) patients (%) | Treatment-emergent cardiovascular events adjudicated positively [1]: 1 (1.0%) patients (%) | Treatment-emergent neurocognitive disorders [1]: 2 (2.0%) patients (%) | Treatment-emergent neurologic disorders [1]: 2 (2.0%) patients (%) | cough [1]: 3 (3.0%) patients (%) | discontinued study treatment early due to a treatment emergent adverse event [1]: 5 (5.0%) patients (%) | injection site reactions (ISRs) [1]: 2 (2.0%) patients (%) | LDL-C W24 % change from baseline, LS mean (SE) ([2]; ITT population, week 24, treatment arm as labelled): −21.4% | Calculated LDL-C LS mean (SE), % Change from Baseline ([2]; Week 4): −22.4 (2.8) % | Calculated LDL-C LS mean (SE), Change from Baseline ([2]; Week 4): −25.2 (3.0) | Calculated LDL-C LS mean (SE), Value (mg/dL) ([2]; Week 4): 83.5 (3.0) mg/dL | Calculated LDL-C LS mean (SE), % Change from Baseline ([2]; Week 8): −21.0 (3.2) % | Calculated LDL-C LS mean (SE), Change from Baseline ([2]; Week 8): −22.9 (3.3) | Calculated LDL-C LS mean (SE), Value (mg/dL) ([2]; Week 8): 85.8 (3.3) mg/dL | Calculated LDL-C LS mean (SE), % Change from Baseline ([2]; Week 12): −23.3 (3.2) % | Calculated LDL-C LS mean (SE), Change from Baseline ([2]; Week 12): −26.3 (3.5) | Calculated LDL-C LS mean (SE), Value (mg/dL) ([2]; Week 12): 82.4 (3.5) mg/dL | Calculated LDL-C LS mean (SE), % Change from Baseline ([2]; Week 16): −15.7 (3.5) % | Calculated LDL-C LS mean (SE), Change from Baseline ([2]; Week 16): −18.7 (3.8) | Calculated LDL-C LS mean (SE), Value (mg/dL) ([2]; Week 16): 90.0 (3.8) mg/dL | Calculated LDL-C LS mean (SE), % Change from Baseline ([2]; Week 24): −21.4 (4.2) % | Calculated LDL-C LS mean (SE), Change from Baseline ([2]; Week 24): −23.1 (4.5) | Calculated LDL-C LS mean (SE), Value (mg/dL) ([2]; Week 24): 85.6 (4.5) mg/dL | patients achieving the more stringent LDL-C goal of <70 mg/dL ([2]; Week 24, calculated LDL-C, across atorvastatin 20 mg and 40 mg regimens): 42.2% | reduced LDL-C levels by ([2]; atorvastatin 40 mg regimen, week 24, add-on mAb316P, add-on ezetimibe, doubling of atorvastatin dose or switch to rosuvastatin 40 mg): 21.4% | Proportion of Patients Reaching LDL-C goal (%) ([2]; week 24, calculated LDL-C <70 mg/dL very high risk or <100 mg/dL high risk, combined estimate): 62.2%
